The record followed here is US11572344B2, “Cyanoaryl-aniline compounds for treatment of dermal disorders” (NFlection Therapeutics, Inc., priority 2018, dated 2023).

For one data set, the system named is A375 cells. The experiment in a line: A375 (BRAF) GI50 cell-based assay (Cell Titer-Glo). Conditions: Homo sapiens, A-375, 72 hours, read-out: Assay 2: A375 (BRAF) GI50. Here is the method: (§1) Alternatively, the following procedure can be used to measure cell-based activity. Test compounds were dissolved in DMSO in 10 mM stock. Cell Titer-Glo® 2.0 Luminescent cell viability assay reagent was purchased from Promega (Madison, Wis.). A375 and HCT116 cell lines were purchased from American Type Culture Collection (Manassas, Va.). For A375 cells, cell culture media was DMEM+10% FBS. For HCT116 cells, cell culture media was McCoy's 5A+10% FBS. All media were supplemented with 100 μg/mL of penicillin, and 100 μg/mL of streptomycin. Cultures were maintained at 37° C. in a humidified atmosphere of 5% CO2 and 95% air.
(§2) Test compounds were diluted in DMSO solution with 10-dose and 3-fold dilutions in a source plate starting at 10 mM. 25 nL of each test compound was delivered from the source plate to each well of the 384-well cell culture plates (T=Final) by Echo 550. 25 μL of culture medium containing 2000 of A375 or HCT116 cells was added to each of the wells in duplicates of the cell culture plates (T=0 and T=Final). 25 μL of Cell Titer Glo 2.0 reagent was added to each well of cell culture plate (T=0). The contents were mixed on an orbital shaker for 2 min and incubated at room temperature for 15 min to stabilize luminescent signal. Luminescence was recorded by Envision 2104 Multilabel Reader (PerkinElmer, Santa Clara, Calif.). The number of viable cells in culture was determined based on quantitation of the ATP present in each culture well. The cells in cell culture plate (T=Final) were incubated with the compounds at 37° C., 5% CO2 for 72 hours. 25 μL of Cell Titer Glo 2.0 reagent was added to each well. The contents were mixed on an orbital shaker for 2 min and incubated at room temperature for 15 min to stabilize luminescent signal. Luminescence was recorded by Envision 2104 Multilabel Reader (PerkinElmer, Santa Clara, Calif.). The number of viable cells in culture was determined based on quantitation of the ATP present in each culture well. The GI50 curves were plotted using the GraphPad Prism 4 program based on a sigmoidal dose-response equation Y=Bottom+(Top-Bottom)/(1+10^((Log EC50−X)*HillSlope)). All parameters in the equation were calculated by GraphPad Prism 4 program. […] Accordingly, GI50 is the value of 10^X, where X was calculated by the Curve Fitting Equation when Y=50 using Excel.
Assay 2 is the A375 (BRAF) GI50 (nM) cell-based assay as described in Example 41.
Background: In ATP-based viability assays light output follows the ATP content of the culture.

Another data set has as its system HCT116 cells. The experiment in a line: HCT116 (Kras) GI50 cell-based assay (Cell Titer-Glo). The conditions noted are these: Homo sapiens, HCT-116, 72 hours, read-out: Assay 3: HCT116 (Kras) GI50. Here is the method:
as §1, §2
Assay 3 is the HCT116 (Kras) GI50 (nM) assay as described in Example 41.

Data set [1] in a line: Liver S9 half-life stability assay. It is filed as in vitro ADME. Conditions: human, liver S9 fraction, pH 7.4; 1 μM test compound, 2 mg/mL liver protein, 1 mM NADPH; read-out: Assay 4: liver S9 half-life. Here is the method:
Compounds can be assessed for metabolic stability in human skin by assessing their rate of disappearance from human S9 skin fraction. Similarly, compounds can be assessed for metabolic stability in human liver by assessing their rate of disappearance from human S9 liver fraction. The protocol below is used to assess the difference between skin and hepatic metabolism.
The assay was carried out in 96-well microtiter plates at 37° C. Reaction mixtures (25 μL) contained a final concentration of 1 μM test compound, 2 mg/mL liver or skin protein, and 1 mM NADPH in buffer (100 mM potassium phosphate, pH 7.4 buffer with 1 mM EDTA, 3 mM MgCl2). At each of the time points (0, 15, 30, and 60 minutes), 150 μL of quench solution (100% acetonitrile with 0.1% formic acid) with internal standard was transferred to each well. Besides the zero minute controls, mixtures containing the same components except the NADPH were also prepared as the negative control. Verapamil or testosterone was included as a positive control to verify assay performance. Plates were sealed and centrifuged at 4° C. for 15 minutes at 4000 rpm. The supernatant was transferred to fresh plates for LC/MS/MS analysis.
All samples were analyzed on LC/MS/MS using an AB Sciex API 4000 instrument, coupled to a Shimadzu LC-20AD LC Pump system. Analytical samples were separated using a Waters Atlantis T3 dC18 reverse phase HPLC column (20 mm×2.1 mm) at a flow rate of 0.5 mL/min. The mobile phase consisted of 0.1% formic acid in water (solvent A) and 0.1% formic acid in 100% acetonitrile (solvent B).
The extent of metabolism was calculated as the disappearance of the test compound, compared to the 0-min control reaction incubations. Initial rates were calculated for the compound concentration and used to determine t1/2 values and subsequently, the intrinsic clearance, CLint=(0.693) (1/t1/2 (min)) (mL incubation/mg of S9 protein).
Assay 4 is the liver S9 half-life stability assay as described in Example 42. A4 indicates a half life of greater than 50 min and less than or equal to 200 min and B4 indicates a half life of less than or equal to 50 minutes.

For orientation: GI50 means the concentration that inhibits growth by half. Broadly, the half-life is the time in which the quantity being followed falls by half.

In the case of `N#Cc1ccc(C(=O)NOCCO)c(Nc2ccc(I)cc2F)c1` [Compound 1.010], the 50% growth inhibitory concentration (GI50) is at most 500 nM with A375 cells and at most 750 nM with HCT116 cells. Also, the half-life at 1 μM in data set [1] is 50 to 200 min.

Consider `N#Cc1ccc(C(=O)NOCCO)c(Nc2ccc(I)cc2F)c1F` [Compound 1.030, 4-cyano-3-fluoro-2-((2-fluoro-4-iodophenyl)amino)-N-(2-hydroxyethoxy) benzamide], for which the GI50 with A375 cells is at most 500 nM; with HCT116 cells, at most 750 nM. In addition, the half-life at 1 μM in data set [1] was in the range of 50 to 200 min.

As for `N#Cc1ccc(C(=O)NOCC2CC2)c(Nc2ccc(I)cc2F)c1F` [Compound 1.031], the GI50 with A375 cells is at most 500 nM; in the data set with HCT116 cells, 750 to 2000 nM. Besides, in data set [1], the half-life at 1 μM was at most 50 min.
